According to patent US20090029995A1, “HETERO BIARYL DERIVATIVES AS MATRIX METALLOPROTEINASE INHIBITORS” (WARNER-LAMBERT COMPANY, priority 2002, published 2009):
Counter-ions that a name gives are not always drawn.

Columns and labels:
[1] = target: T1, MMP-13 catalytic domain (Homo sapiens, UniProt P45452); assay: MMP-13 catalytic domain inhibition (thiopeptolide substrate hydrolysis); format: biochemical; conditions: read-out: MMP-13CD IC50
T1 construct: use the catalytic domain of the MMP-13 enzyme, namely matrix metalloproteinase-13 catalytic domain (“MMP-13CD”)
Source text: The assays measure the amount by which a test compound reduces the hydrolysis of a thiopeptolide substrate catalyzed by a matrix metalloproteinase enzyme. […] One such assay is described below in Biological Method 1.
Some of the particular methods described below use the catalytic domain of the MMP-13 enzyme, namely matrix metalloproteinase-13 catalytic domain (“MMP-13CD”), rather than the corresponding full-length enzyme, MMP-13.
Thiopeptolide substrates show virtually no decomposition or hydrolysis at or below neutral pH in the absence of a matrix metalloproteinase enzyme. A typical thiopeptolide substrate commonly utilized for assays is Ac-Pro-Leu-Gly-thioester-Leu-Leu-Gly-OEt. […] Assays are carried out with and without matrix metalloproteinase inhibitor compounds, and the amount of hydrolysis is compared for a determination of inhibitory activity of the test compounds.

With `CS(=O)(=O)c1ccc(Cn2nnc(-c3ccnc(C(=O)NCc4cncnc4)c3)n2)cc1` [Example F4, 4-[2-(4-Methanesulfonyl-benzyl)-2H-tetrazol-5-yl]-pyridine-2-carboxylic acid (pyrimidin-5-ylmethyl)-amide] the IC50 [1] was 0.21 µM and the melting point was 178 to 179 °C.

Molecule `COc1cccc(Cn2nnc(-c3cccc(C(=O)NCc4ccc(C(=O)O)cc4)c3)n2)c1` [Example 4, 4-({3-[2-(3-Methoxy-benzyl)-2H-tetrazol-5-yl]-benzoylamino}-methyl)-benzoic acid] has an IC50 [1] of 0.039 µM and a melting point of 204 to 206 °C.

For `COc1ccc(CNC(=O)c2cc(-c3nnn(Cc4ccc(S(C)(=O)=O)cc4)n3)ccn2)cc1` [Example F6, 4-[2-(4-Methanesulfonyl-benzyl)-2H-tetrazol-5-yl]-pyridine-2-carboxylic acid 4-methoxy-benzylamide], the IC50 [1] was 0.024 µM and the melting point was 145 to 146 °C.

Molecule `O=C(O)c1ccc(Cn2nnc(-c3cccc(C#CCCc4ccccc4)c3)n2)cc1` [Example G2, 4-{5-[3-(4-Phenyl-but-1-ynyl)-phenyl]-tetrazol-2-ylmethyl}-benzoic acid] has an IC50 [1] of 0.28 µM and a melting point of 198 to 199 °C.

Molecule `COc1ccc(Cn2nnc(-c3ccc(OC)c(C(=O)NCc4ccc(C(=O)O)cc4)c3)n2)cc1` [Example 36, 4-({2-Methoxy-5-[2-(4-methoxy-benzyl)-2H-tetrazol-5-yl]-benzoylamino}-methyl)-benzoic acid] has a melting point of 207 to 209 °C.

For `CS(=O)(=O)c1ccc(Cn2nnc(-c3ccnc(C(=O)NCc4ccc(Oc5ccccc5)cc4)c3)n2)cc1` [Example F8, 4-[2-(4-Methanesulfonyl-benzyl)-2H-tetrazol-5-yl]-pyridine-2-carboxylic acid 4-phenoxy-benzylamide], the IC50 [1] was 0.19 µM and the melting point was 100 to 103 °C.

For `N#Cc1ccc(Cn2nnc(-c3cccc(C(=O)NCc4ccccc4)c3)n2)cc1` [Example 29, N-Benzyl-3-[2-(4-cyano-benzyl)-2H-tetrazol-5-yl]-benzamide], the melting point was 191 to 192 °C.

Molecule `N#Cc1ccc(Cn2nnc(-c3ccnc(C(=O)NCc4ccncc4)c3)n2)cc1` [Example F5, 4-[2-(4-Cyano-benzyl)-2H-tetrazol-5-yl]-pyridine-2-carboxylic acid (pyridin-4-ylmethyl)-amide] has an IC50 [1] of 0.024 µM and a melting point of 178 to 179 °C.

`O=C(O)c1ccc(Cn2nnc(-c3cncc(C#CCc4ccccc4)c3)n2)cc1` [Example H1, 4-{5-[5-(3-Phenyl-prop-1-ynyl)-pyridin-3-yl]-tetrazol-2-ylmethyl}-benzoic acid] gave an IC50 [1] of 0.01 µM and a melting point of 211 to 213 °C.

With `O=C(O)c1ccc(CNC(=O)c2cccc(-c3nnn(Cc4cccc(F)c4)n3)c2)cc1` [Example 8, 4-({3-[2-(3-Fluoro-benzyl)-2H-tetrazol-5-yl]-benzoylamino}-methyl)-benzoic acid] the melting point was 217 to 219 °C.

`COc1ccc(Cn2nnc(-c3cccc(C(=O)NCc4ccncc4)c3)n2)cc1` [Example 18, 3-[2-(4-Methoxy-benzyl)-2H-tetrazol-5-yl]-N-pyridin-4-ylmethyl-benzamide] gave a melting point of 163 to 164 °C.

With `O=C(O)Cc1ccc(Cn2nnc(-c3cccc(C#CCc4ccc(F)cc4)c3)n2)cc1` [Example I1, [4-(5-{3-[3-(4-Fluoro-phenyl)-prop-1-ynyl]-phenyl}-tetrazol-2-ylmethyl)-phenyl]-acetic acid] the IC50 [1] was 0.0026 µM and the melting point was 158 to 159 °C.

In the case of `CS(=O)(=O)c1ccc(Cn2nnc(-c3ccnc(C(=O)NC4CCc5ccccc54)c3)n2)cc1` (stereo not shown) [Example F9, 4-[2-(4-Methanesulfonyl-benzyl)-2H-tetrazol-5-yl]-pyridine-2-carboxylic acid indan-1-ylamide], the melting point is reported as 147 to 150 °C.

With `CS(=O)(=O)c1ccc(Cn2nnc(-c3ccnc(C(=O)NCc4cccnc4)c3)n2)cc1` [Example F7, 4-[2-(4-Methanesulfonyl-benzyl)-2H-tetrazol-5-yl]-pyridine-2-carboxylic acid (pyridin-3-ylmethyl)-amide] the IC50 [1] was 0.11 µM and the melting point was 174 to 175 °C.

`COc1ccc(CNC(=O)c2cccc(-c3nnn(Cc4ccc(OC)cc4)n3)c2)cc1` [Example 26, N-(4-Methoxy-benzyl)-3-[2-(4-methoxy-benzyl)-2H-tetrazol-5-yl]-benzamide] gave a melting point of 159 to 160 °C.

For `COc1cc(CNC(=O)c2cccc(-c3nnn(Cc4ccc(C(=O)O)cc4)n3)c2)ccn1` (as salt: TFA) [Example 33, 4-(5-{3-[(2-Methoxy-pyridin-4-ylmethyl)-carbamoyl]-phenyl}-tetrazol-2-ylmethyl)-benzoic acid], the melting point was 228 °C (dec.).

Work on `COc1ccc(Cn2nnc(-c3cccc(C(=O)NCc4ccnc(OC)c4)c3)n2)cc1` [Example 16, 3-[2-(4-Methoxy-benzyl)-2H-tetrazol-5-yl]-N-(2-methoxy-pyridin-4-ylmethyl)-benzamide] yielded a melting point of 166 to 169 °C.

With `COc1ccc(Cn2nnc(-c3cccc(C(=O)NCc4ccc5nsnc5c4)c3)n2)cc1` [Example 15, N-2,1,3-Benzothiadiazol-5-ylmethyl-3-[2-(4-methoxy-benzyl)-2H-tetrazol-5-yl]-benzamide] the melting point was 207 to 208 °C.

With `O=C(O)c1ccc(Cn2nnc(-c3cccc(C#Cc4ccccc4)c3)n2)cc1` [Example G1, 4-[5-(3-Phenylethynyl-phenyl)-tetrazol-2-ylmethyl]-benzoic acid] the IC50 [1] was 0.69 µM and the melting point was 226 to 228 °C.

Work on `O=C(O)c1ccc(CNC(=O)c2cccc(-c3nnn(Cc4ccc(F)cc4)n3)c2)cc1` [Example 6, 4-({3-[2-(4-Fluoro-benzyl)-2H-tetrazol-5-yl]-benzoylamino}-methyl)-benzoic acid] yielded a melting point of 222 to 224 °C.

Work on `CS(=O)(=O)c1ccc(Cn2nnc(-c3cccc(C#CCc4ccc(F)cc4)c3)n2)cc1` [Example D5, 5-{3-[3-(4-Fluoro-phenyl)-prop-1-ynyl]-phenyl}-2-(4-methanesulfonyl-benzyl)-2H-tetrazole] yielded an IC50 [1] of 0.15 µM and a melting point of 101 to 104 °C.

Work on `NS(=O)(=O)c1ccc(Cn2nnc(-c3cccc(C#CCc4ccccc4)c3)n2)cc1` [Example D4, 4-{5-[3-(3-Phenyl-prop-1-ynyl)-phenyl]-tetrazol-2-ylmethyl}-benzenesulfonamide] yielded an IC50 [1] of 0.15 µM and a melting point of 158 to 159 °C.

Work on `CS(=O)(=O)c1ccc(Cn2nnc(-c3ccnc(C(=O)NCc4ccc(Cl)c(Cl)c4)c3)n2)cc1` [Example F10, 4-[2-(4-Methanesulfonyl-benzyl)-2H-tetrazol-5-yl]-pyridine-2-carboxylic acid 3,4-dichloro-benzylamide] yielded an IC50 [1] of 0.047 µM and a melting point of 150 to 152 °C.

`O=C(O)C1CCC(Cn2nnc(-c3cccc(C#CCc4ccc(F)cc4)c3)n2)CC1` (stereo not shown) [Example I2, 4-(5-{3-[3-(4-Fluoro-phenyl)-prop-1-ynyl]-phenyl}-tetrazol-2-ylmethyl)-cyclohexanecarboxylic acid] showed an IC50 [1] of 0.0012 µM and a melting point of 172 to 173 °C.

`CS(=O)(=O)c1ccc(Cn2nnc(-c3ccnc(C(=O)NCc4ccc(-n5cccn5)cc4)c3)n2)cc1` [Example F11, 4-[2-(4-Methanesulfonyl-benzyl)-2H-tetrazol-5-yl]-pyridine-2-carboxylic acid 4-pyrazol-1-yl-benzylamide] gave an IC50 [1] of 11 µM and a melting point of 173 to 174 °C.

Molecule `C/C=C/Cn1nnc(-c2cccc(C(=O)NCc3ccccc3)c2)n1` [Example 27, N-Benzyl-3-(2-but-2-enyl-2H-tetrazol-5-yl)-benzamide] has a melting point of 100 to 101 °C.

`C/C=C/Cn1nnc(-c2cccc(C(=O)NCc3ccc(C(=O)OC)cc3)c2)n1` [Example 10, 4-{[3-(2-But-2-enyl-2H-tetrazol-5-yl)-benzoylamino]-methyl}benzoic acid methyl ester] gave a melting point of 107 to 108 °C.

With `COC(=O)c1ccc(CNC(=O)c2cccc(-c3nnn(Cc4nccs4)n3)c2)cc1` [Example 9] the melting point was 158 to 160 °C.

With `COc1ccc(Cn2nnc(-c3ccc(OC)c(C(=O)NCc4ccc(C(F)(F)F)cc4)c3)n2)cc1` [Example 37, 2-Methoxy-5-[2-(4-methoxy-benzyl)-2H-tetrazol-5-yl]-N-(4-trifluoromethyl-benzyl)-benzamide] the melting point was 188 to 190 °C.

Work on `COc1ccc(Cn2nnc(-c3cccc(C(=O)NCc4ccc(CN5CCOCC5)cc4)c3)n2)cc1` [Example 12, 3-[2-(4-Methoxy-benzyl)-2H-tetrazol-5-yl]-N-(4-morpholin-4-ylmethyl-benzyl)-benzamide] yielded a melting point of 161 to 162 °C.

`COC(=O)c1ccc(CNC(=O)c2cc(-c3nnn(Cc4ccc(OC)cc4)n3)ccc2OC)cc1` [Example 35] gave a melting point of 177 to 178 °C.

In the case of `COC(=O)c1ccc(CNC(=O)c2cccc(-c3nnn(Cc4cccc(OC)c4)n3)c2)cc1` [Example 3, 4-({3-[2-(3-Methoxy-benzyl)-2H-tetrazol-5-yl]-benzoylamino}-methyl)-benzoic acid methyl ester], the melting point is reported as 153 to 154 °C.

With `COc1ccc(Cn2nnc(-c3cccc(C(=O)NCc4ccc(F)c(Cl)c4)c3)n2)cc1` [Example 13, N-(3-Chloro-4-fluoro-benzyl)-3-[2-(4-methoxy-benzyl)-2H-tetrazol-5-yl]-benzamide] the melting point was 150 to 151 °C.

Molecule `CC(C)CC#Cc1cccc(-c2nnn(Cc3ccc(C(=O)O)cc3)n2)c1` [Example G3, 4-{5-[3-(4-Methyl-pent-1-ynyl)-phenyl]-tetrazol-2-ylmethyl}-benzoic acid] has a melting point of 192 to 193 °C.
